The record followed here is ChEMBL document CHEMBL1126475, “Synthesis of a potent and selective non-peptide CCK-B/gastrin receptor antagonist tritiated ligand” (Bioorg Med Chem Lett, 1993).

The species entered for one assay is Rattus norvegicus. The assay can be described thus: Antagonistic activity against excitations of rat ventromedial hyphalamic neurones evoked in CCK-B. Type of assay: functional.
Assay [1] deals with T1, Gastrin/cholecystokinin type B receptor (Rattus norvegicus) (UniProt P30553).
T1 sequence (whole entry): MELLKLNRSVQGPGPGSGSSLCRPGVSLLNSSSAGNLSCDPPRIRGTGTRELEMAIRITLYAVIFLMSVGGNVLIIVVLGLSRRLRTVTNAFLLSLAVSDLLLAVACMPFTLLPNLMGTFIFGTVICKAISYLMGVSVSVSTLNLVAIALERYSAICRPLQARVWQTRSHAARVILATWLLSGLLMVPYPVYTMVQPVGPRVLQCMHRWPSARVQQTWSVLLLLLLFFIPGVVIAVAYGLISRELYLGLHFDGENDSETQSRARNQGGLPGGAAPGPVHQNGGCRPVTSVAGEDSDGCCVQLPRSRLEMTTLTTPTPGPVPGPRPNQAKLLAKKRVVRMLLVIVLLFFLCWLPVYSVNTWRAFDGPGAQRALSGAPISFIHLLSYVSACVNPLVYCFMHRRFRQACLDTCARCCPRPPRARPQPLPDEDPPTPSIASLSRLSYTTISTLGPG
The assay can be described thus: Specific activity for Cholecystokinin type B receptor in 10e5 AR42J cells was determined for the compound. Type of assay: cell-based. The settings on record: AR-42J.

For assay [2], the target named is T2, Gastrin/cholecystokinin type B receptor (Mus musculus, UniProt P56481).
T2 sequence (P56481 whole entry): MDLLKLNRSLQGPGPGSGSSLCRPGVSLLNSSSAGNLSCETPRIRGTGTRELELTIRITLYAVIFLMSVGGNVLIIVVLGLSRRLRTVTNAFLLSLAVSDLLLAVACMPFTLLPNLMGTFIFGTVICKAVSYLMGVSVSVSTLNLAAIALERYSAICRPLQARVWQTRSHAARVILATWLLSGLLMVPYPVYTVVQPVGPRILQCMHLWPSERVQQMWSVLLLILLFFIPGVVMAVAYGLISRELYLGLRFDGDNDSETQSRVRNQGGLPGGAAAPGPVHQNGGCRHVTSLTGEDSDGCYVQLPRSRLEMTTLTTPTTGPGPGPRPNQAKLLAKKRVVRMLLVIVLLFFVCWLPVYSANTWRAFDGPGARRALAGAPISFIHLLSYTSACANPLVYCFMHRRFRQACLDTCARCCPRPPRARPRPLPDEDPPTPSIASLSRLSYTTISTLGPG
Briefly: The compound was evaluated for the inhibition of binding of [3H]-PD 140376 to Cholecystokinin type B receptor in mouse cortex.

Assay [3] in a line: Tested for dissociation constant of the compound; Value ranges from 0.1-0.3. Format: ADME.
Assay [4] concerns the target T3, Cholecystokinin receptor type A (Rattus norvegicus, UniProt P30551).
T3 sequence (P30551 whole entry): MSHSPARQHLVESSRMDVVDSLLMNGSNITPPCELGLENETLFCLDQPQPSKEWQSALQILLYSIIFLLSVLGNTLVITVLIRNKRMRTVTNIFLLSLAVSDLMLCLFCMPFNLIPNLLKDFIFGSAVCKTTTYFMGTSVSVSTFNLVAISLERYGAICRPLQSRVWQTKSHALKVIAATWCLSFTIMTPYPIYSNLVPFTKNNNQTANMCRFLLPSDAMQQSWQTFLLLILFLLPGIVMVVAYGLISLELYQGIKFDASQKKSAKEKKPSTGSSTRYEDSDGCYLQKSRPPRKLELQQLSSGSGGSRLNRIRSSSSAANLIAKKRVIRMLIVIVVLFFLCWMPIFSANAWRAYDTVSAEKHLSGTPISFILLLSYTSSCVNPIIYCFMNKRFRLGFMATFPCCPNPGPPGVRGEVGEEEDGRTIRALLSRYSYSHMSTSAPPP
Briefly: The compound was evaluated for the inhibition of binding of [125I]Bolton-Hunter CCK-8 to Cholecystokinin type A receptor in the rat pancreas.

pKd, pKi: −log10 of the molar value.

Consider `CSCC[C@H](NC(=O)[C@H](Cc1c[nH]c2ccccc12)NC(=O)CCNC(=O)OC(C)(C)C)C(=O)N[C@@H](CC(=O)O)C(=O)N[C@@H](Cc1ccccc1)C(N)=O` [PENTAGASTRIN], for which the Ke in the assay listed under Rattus norvegicus was 1.4 nM.

What is called pKi is −log10 of the Ki, conventionally taken in molar units. Read a high pKi as a low Ki. The pKd is the negative decadic logarithm of the Kd, by convention in mol/L. Low readings indicate a high Kd, high ones a low Kd. In assay [1], `C[C@](Cc1c[nH]c2ccccc12)(NC(=O)OC1C2CC3CC(C2)CC1C3)C(=O)N[C@@H](CC(=O)O)Cc1ccc(N)cc1` (stereo not given in full) returned a Bmax (fmol/10^5 cells) of 31. Also, the results for the pKi in assay [2] and in assay [4] were 9.70 and 6.46, respectively. Moreover, the pKd in assay [3] is 10.00.
